Bounds are passed on as bounds.

Experiment [1] has as its target T1, Aurora A (Homo sapiens, UniProt O14965).
T1 construct: made in house
T1 sequence (O14965 1-403): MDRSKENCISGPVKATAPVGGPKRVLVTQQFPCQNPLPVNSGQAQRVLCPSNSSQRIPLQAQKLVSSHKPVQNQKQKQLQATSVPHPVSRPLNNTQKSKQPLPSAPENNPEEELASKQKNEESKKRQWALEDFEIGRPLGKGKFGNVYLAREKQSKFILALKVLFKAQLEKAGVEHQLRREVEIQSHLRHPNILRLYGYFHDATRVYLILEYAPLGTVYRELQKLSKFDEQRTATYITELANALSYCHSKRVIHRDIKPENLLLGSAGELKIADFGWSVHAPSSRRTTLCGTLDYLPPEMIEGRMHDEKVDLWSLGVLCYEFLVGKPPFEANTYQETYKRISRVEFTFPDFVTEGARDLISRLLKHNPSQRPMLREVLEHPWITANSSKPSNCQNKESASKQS
Description: Kinase competition binding assay, Aurora A. As to conditions: Table 1 kinase panel. As for the experimental part:
(§1) Cannabis flavonoids and their analogs were subjected to kinase inhibition assay. The compounds were first screened at a single concentration of 10 μM in the primary assay. […]. To determine the kd or IC50 values, competition binding assays were established, authenticated and executed as described previously. Fabian et al., “A Small Molecule-Kinase Interaction Map For Clinical Kinase Inhibitors.”, Nat Biotechnol, 23(3):329-36, Epub (2005). See also, Karaman et al., “A Quantitative Analysis Of Kinase Inhibitor Selectivity”, Nat. Biotechnol. […] For most assays, kinases were fused to T7 phage strains (Fabian, supra) and for the other assays, kinases were produced in HEK-293 cells after which they were tagged with DNA for quantitative PCR detection. In general, full-length constructs were used for small, single domain kinases, and catalytic domain constructs for large multi-domain kinases. The binding assays utilized streptavidin-coated magnetic beads treated with biotinylated small molecule ligands for 30 minutes at room temperature which generated affinity resins for the kinase assays. The liganded beads were blocked with excess biotin and washed with blocking buffer (SeaBlock (Pierce), 1% BSA, 0.05% Tween 20, 1 mM DTT) to remove unbound ligand and to reduce non-specific phage binding. […] Test compounds were prepared as 40× stocks in 100% DMSO and diluted directly into the assay (Final DMSO concentration=2.5%). All reactions were performed in polypropylene 384-well plates in a final volume of 0.04 ml. […] The beads were then re-suspended in elution buffer (1×PBS, 0.05% Tween 20, 0.5 μM non-biotinylated affinity ligand) and incubated at room temperature with shaking for 30 minutes. The kinase concentration in the eluates was measured by quantitative PCR. An illustration of the kinase interaction process is presented below. Kd/IC50 values were determined using a standard dose response curve using the hill equation. Curves were fitted using a non-linear least square fit with the Levenberg-Marquardt algorithm.
(§2) The compound(s) were screened at 10 μM and results for primary screen binding interactions are reported as ‘% Ctrl’, where lower numbers indicate stronger hits in the matrix.

In experiment [2] the target is T2, CK2a (Homo sapiens, UniProt P68400).
T2 construct: made in house
T2 sequence (P68400 whole entry): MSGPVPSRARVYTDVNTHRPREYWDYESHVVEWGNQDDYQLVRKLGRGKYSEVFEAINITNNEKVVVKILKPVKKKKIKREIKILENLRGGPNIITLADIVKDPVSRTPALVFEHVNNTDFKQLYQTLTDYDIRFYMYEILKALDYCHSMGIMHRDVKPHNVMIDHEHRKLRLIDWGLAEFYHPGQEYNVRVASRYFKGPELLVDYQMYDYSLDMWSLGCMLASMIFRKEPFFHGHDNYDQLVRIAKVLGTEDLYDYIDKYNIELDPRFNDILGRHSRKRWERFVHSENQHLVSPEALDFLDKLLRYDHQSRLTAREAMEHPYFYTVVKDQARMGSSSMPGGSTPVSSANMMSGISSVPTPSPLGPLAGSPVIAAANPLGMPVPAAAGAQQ
Description: Kinase competition binding assay, CK2a. As to conditions: Table 1 kinase panel. As for the experimental part:
as §1, §2

The target in experiment [3] is T3, KIT (Homo sapiens, UniProt P10721).
T3 construct: made in house
T3 sequence (P10721 26-976): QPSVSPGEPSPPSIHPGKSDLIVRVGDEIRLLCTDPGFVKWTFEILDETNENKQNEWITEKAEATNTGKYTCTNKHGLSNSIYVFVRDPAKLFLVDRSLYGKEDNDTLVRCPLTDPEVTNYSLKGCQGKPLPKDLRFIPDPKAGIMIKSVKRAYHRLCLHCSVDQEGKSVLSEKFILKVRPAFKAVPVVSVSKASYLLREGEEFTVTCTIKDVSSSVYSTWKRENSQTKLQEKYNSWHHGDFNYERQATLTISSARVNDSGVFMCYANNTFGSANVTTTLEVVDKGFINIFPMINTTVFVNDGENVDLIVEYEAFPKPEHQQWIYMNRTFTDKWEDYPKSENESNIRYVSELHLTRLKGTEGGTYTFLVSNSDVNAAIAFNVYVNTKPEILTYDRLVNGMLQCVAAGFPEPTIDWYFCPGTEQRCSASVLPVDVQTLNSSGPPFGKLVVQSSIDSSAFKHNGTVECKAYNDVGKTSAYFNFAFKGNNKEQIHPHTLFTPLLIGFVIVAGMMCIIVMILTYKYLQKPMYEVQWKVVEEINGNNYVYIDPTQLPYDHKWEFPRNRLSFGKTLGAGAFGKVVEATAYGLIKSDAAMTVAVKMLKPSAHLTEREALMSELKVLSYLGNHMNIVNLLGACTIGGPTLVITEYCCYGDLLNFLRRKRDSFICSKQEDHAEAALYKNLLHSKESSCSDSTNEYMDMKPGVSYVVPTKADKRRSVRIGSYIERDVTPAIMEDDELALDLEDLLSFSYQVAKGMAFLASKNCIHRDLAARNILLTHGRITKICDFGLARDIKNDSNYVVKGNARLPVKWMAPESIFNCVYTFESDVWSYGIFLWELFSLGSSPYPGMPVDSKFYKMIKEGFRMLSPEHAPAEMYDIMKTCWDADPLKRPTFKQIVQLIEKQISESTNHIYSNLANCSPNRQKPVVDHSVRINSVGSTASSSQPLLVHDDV
Description: Kinase competition binding assay, KIT. As to conditions: Table 1 kinase panel. As for the experimental part:
as §1, §2

Experiment [4] has as its target T4, KIT(L576P) (Homo sapiens, UniProt P10721, L576P).
T4 construct: made in house
Description: Kinase competition binding assay, KIT(L576P). As to conditions: Table 1 kinase panel. The method, then:
as §1, §2

For experiment [5], the target named is T5, MELK (Homo sapiens, UniProt Q14680).
T5 construct: made in house
T5 sequence (Q14680 whole entry): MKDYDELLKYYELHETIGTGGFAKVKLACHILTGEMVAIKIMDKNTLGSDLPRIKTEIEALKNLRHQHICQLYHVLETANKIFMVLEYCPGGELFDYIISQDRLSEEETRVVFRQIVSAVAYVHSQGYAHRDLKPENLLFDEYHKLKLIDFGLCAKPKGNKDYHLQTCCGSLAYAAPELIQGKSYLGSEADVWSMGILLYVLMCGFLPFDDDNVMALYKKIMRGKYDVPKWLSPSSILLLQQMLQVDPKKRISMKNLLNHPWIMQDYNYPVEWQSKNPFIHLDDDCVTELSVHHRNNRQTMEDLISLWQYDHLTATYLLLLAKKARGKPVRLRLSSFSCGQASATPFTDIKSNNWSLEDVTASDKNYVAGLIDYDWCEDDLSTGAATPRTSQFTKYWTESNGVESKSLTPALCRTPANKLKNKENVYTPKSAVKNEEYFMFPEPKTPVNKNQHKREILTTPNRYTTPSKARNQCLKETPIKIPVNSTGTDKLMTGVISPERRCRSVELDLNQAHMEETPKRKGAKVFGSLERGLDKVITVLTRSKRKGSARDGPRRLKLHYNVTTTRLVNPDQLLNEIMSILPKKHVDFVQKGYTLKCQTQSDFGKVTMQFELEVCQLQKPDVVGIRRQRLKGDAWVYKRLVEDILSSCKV
Description: Kinase competition binding assay, MELK. As to conditions: Table 1 kinase panel. The method, then: as §1, §2

Experiment [6] concerns the target T6, MEK5 (Homo sapiens, UniProt Q13163).
T6 construct: made in house
T6 sequence (Q13163 1-448): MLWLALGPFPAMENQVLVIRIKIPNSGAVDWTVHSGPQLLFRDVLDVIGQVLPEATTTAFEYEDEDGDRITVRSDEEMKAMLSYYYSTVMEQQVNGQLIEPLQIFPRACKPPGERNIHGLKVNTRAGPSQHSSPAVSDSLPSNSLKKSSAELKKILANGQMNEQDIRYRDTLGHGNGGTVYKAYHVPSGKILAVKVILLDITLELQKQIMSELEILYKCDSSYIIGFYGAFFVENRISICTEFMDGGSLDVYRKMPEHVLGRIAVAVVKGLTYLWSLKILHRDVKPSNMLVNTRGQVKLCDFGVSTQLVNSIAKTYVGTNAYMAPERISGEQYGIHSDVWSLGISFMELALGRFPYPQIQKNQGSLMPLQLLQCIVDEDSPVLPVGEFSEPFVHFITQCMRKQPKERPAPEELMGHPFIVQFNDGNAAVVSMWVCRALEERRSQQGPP
Description: Kinase competition binding assay, MEK5. Particulars: Table 1 kinase panel. The method, then:
as §1, §2

Experiment [7] deals with T7, PDGFRB (Homo sapiens, UniProt P09619).
T7 construct: catalytic domain constructs for large multi-domain kinases; T7 phage fusion (most assays) or DNA tag for qPCR (HEK-293-made kinases); made in house
T7 sequence (P09619 600-962 limits assumed): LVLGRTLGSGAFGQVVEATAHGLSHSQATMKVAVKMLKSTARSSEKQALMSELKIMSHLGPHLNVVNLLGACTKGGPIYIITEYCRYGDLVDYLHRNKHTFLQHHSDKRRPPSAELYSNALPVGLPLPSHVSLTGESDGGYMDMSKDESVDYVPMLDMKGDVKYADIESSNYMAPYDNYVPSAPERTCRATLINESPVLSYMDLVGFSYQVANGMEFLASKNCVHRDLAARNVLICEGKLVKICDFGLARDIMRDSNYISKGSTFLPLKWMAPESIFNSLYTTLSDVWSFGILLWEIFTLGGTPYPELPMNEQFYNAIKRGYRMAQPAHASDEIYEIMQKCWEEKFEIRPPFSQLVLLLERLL
Description: Kinase competition binding assay, PDGFRB. As to conditions: Table 1 kinase panel. As for the experimental part:
as §1, §2

The subject of experiment [8] is NCI-H69 (Small lung). Description: WST-1 anticancer cell proliferation assay, NCI-H69. As to conditions: 72 hours. The format is cell-based. The method, then:
Bioactivity of the above-described compounds has been verified by an anticancer cell proliferation assay using the WST-1 (4-[3-(4-iodophenyl)-2-(4-nitrophenyl)-2H-5-tetrazolio]-1, 3-benzene disulfonate) colorimetric assay by Roche Life Sciences®. Anticancer activity was tested against several standard cancer cell lines including brain, breast, Kaposi sarcoma, leukemia, lung, melanoma, tenosynovial giant cell tumor, ovarian, pancreatic, colon and prostate cancer. Cells were trypsinized and plated into 96 well plates in 50 μl of media and incubated overnight. The next day approximately 18 hours after plating, 50 μl of media containing the required flavonoid-based pharmaceutical composition was added per well. Cells were plated at a density so that 72 hours post drug addition, the cells will be in log phase (500)-2000 cells/well). The compounds and extracts were solubilized in Dimethyl sulfoxide (DMSO). The cells are allowed to proliferate for 72 hours 37° C. in humidified atmosphere of 5% CO2. The experiment is terminated using WST-1 (Roche®) 10 μl per well and absorbance is read at 450 nm %690 nm. The effect of drugs on growth is assessed as percent of cell viability. The IC50 values were determined from the extract dose versus control growth curves using Graphpad Prism® software. All experiments were carried out in duplicate and the mean results determined.
Background: Formazan colour is commonly taken as a measure of viable cells.

T4 sequence (P10721 26-976 L576P): as the sequence (P10721 26-976) above, with L551P counted along it

The IC50 is the concentration needed to halve the response being measured. A low value points to higher potency. Regarding `COc1cc(-c2cc(=O)c3c(O)c(C/C=C(\C)CCC=C(C)C)c(O)cc3o2)ccc1O` [FBL-03A], the IC50 is 730 nM in experiment [1]; 740 nM in experiment [2]; 350 nM in experiment [3]; 180 nM in experiment [4]; greater than 20000 nM in experiment [5]; 140 nM in experiment [6]. Further, the IC50 turned out to be 330 nM in experiment [7] and 16 µM in experiment [8].
As for `COc1ccc(-c2cc(=O)c3c(O)c(C/C=C(\C)CCC=C(C)C)c(O)cc3o2)cc1OC` [FBL-03D], the IC50 in experiment [1], in experiment [2], in experiment [3], in experiment [4], in experiment [5] and in experiment [6] was greater than 30000 nM throughout. The IC50 in experiment [7] was greater than 30000 nM.
For the compound `COc1cc(-c2cc(=O)c3c(O)c(CC=C(C)C)c(O)cc3o2)ccc1O` [FBL-03B], the IC50 in experiment [1] was 12 nM; in experiment [2] it was 768 nM; in experiment [3], less than 1000 nM; in experiment [4] it was less than 1000 nM; in experiment [5], 232 nM; in experiment [6], greater than 1000 nM. Moreover, the 50% inhibitory concentration (IC50) was found to be 1160 nM in experiment [7] and 11 µM in experiment [8].
In the case of `COc1cc(-c2cc(=O)c3c(O)cc(O)c(C/C=C(\C)CCC=C(C)C)c3o2)ccc1O` [FBL-03C], the 50% inhibitory concentration (IC50) in experiment [2] is 58 nM; in experiment [3], greater than 1000 nM; in experiment [4], greater than 1000 nM; in experiment [5], greater than 1000 nM; in experiment [6], 84 nM; in experiment [7] it was greater than 1000 nM. In experiment [8], this compound came in with an IC50 of 18 µM.
Consider `COc1cc(-c2cc(=O)c3c(O)cc(O)c(CC=C(C)C)c3o2)ccc1O` [FBL-03G], for which the IC50 is 1090 nM in experiment [1]; 38 nM in experiment [2]; less than 1000 nM in experiment [3]; less than 1000 nM in experiment [4]; 105 nM in experiment [5]; greater than 1000 nM in experiment [6]. Moreover, the IC50 in experiment [7] turned out to be 3310 nM; in experiment [8], 9.5 µM.

The values are drawn from patent US20180353462A1, “[…] AGENTS […] FLAVONOID DERIVATIVES TARGETING KINASES, SIRTUINS AND ONCOGENIC AGENTS FOR THE TREATMENT OF CANCERS” (priority 2015, published 2018).
